In patent publication US10336792B2, “Antimicrobial peptide dendrimers” (priority 2014, dated 2019):
Converted amounts (≈) assume the structure as drawn. Positions of bridges follow the written chain, without caps; N, C: chain ends. Residues, ends and D or L forms follow the SMILES beside them. Groups on a side chain read outwards from the residue. Chains are numbered I, II in the order given. *: point of attachment. Palmitoyl = CCCCCCCCCCCCCCCC(=O)*

Tests used:
[1] = test system: Pseudomonas aeruginosa (strain PA01); assay: microbe, parasite or virus in culture; type: cell-based; conditions: strain
Experimental: (§1) Antimicrobial activity was assayed against Bacillus subtilis (strain BR151), Escherichia coli (strain DH5α) and Pseudomonas aeruginosa (strain PA01). Microdilution broth method was used to determine the minimal inhibitory concentration (MIC). A colony of bacteria was grown in LB-medium overnight at 37° C. The concentration was quantified by measuring absorbance at 600 nm and diluted to OD600=0.1 (1×10^8 CFU/mL). The samples were prepared as stock solutions of 1 mg mL^−1 in H2O and diluted serially by ⅔ in nutrient LB in a 96-well microtiterplate (Cornstar, polypropylene, untreated). The sample solutions (50 μL) were mixed with the diluted bacterial suspension with an OD600 nm of 0.001 (50 μL). […] The plates were incubated at 37° C. until satisfactory growth (18-24 h). For each test, two columns of the plate were kept for sterility control (SC, broth only) and growth control (GC, broth with bacterial inoculums, no antibiotics). 10 μL of a solution of MTT (0.1% in H2O) was added to each well. The minimal inhibitory concentration (MIC) was defined as the lowest concentration of the antimicrobial substance (peptide dendrimer) that inhibited visible growth of the tested bacteria (yellow) with the unaided eye. For microbiological study the linear peptide LysTyrLysLysAlaLeuLysLysLeuAlaLysLeuLeu (SEQ ID No. 1) was used as reference.
All peptides were tested for their activity against P. aeruginosa PAO1 in a broth dilution assay (Wiegand, I. et al., 2008, Nat. Protoc., 3, 163-75; Clinical and Laboratory Standards Institute document M7-A7 7th Edition) to determine the MIC (minimal inhibitory concentration) values. The stock solutions of the peptide dendrimers were diluted serially by ⅔ in nutrient LB in 96-well microtiter plates. Bacteria were grown in nutrient LB overnight at 37° C. After dilution the bacteria were added to the peptides and incubated overnight (18-24 h) at 37° C. […] The position of the amino acids between the branching units seems to be optimal if the hydrophobic amino acid is the first counting from C-terminus and the charged one is on the second position. Introducing Ala as additional hydrophobic amino acid reduces activity (MSt-120). […] Also assembling charged or hydrophobic sections between the branching units leads to loss of activity whereas altering L-amino acids to D-amino acids maintains activity leading to the hypothesis that the mechanism of action should not be receptor mediated.

[2] = test system: Escherichia coli (strain DH5α); type: cell-based; conditions: DH5α
Experimental: as §1
The AMPD library was tested for their antimicrobial activity against B. subtilis BR151, a Gram-positive bacterium and E. coli DH5α, another Gram-negative bacterium, to cover a broader spectrum of different bacteria. […] Therefore no explicit SAR can be established, but clearly the hydrophobic amino acids Ala and Tyr seem to have a significant influence in reducing activity.

Compound	MIC P. aeruginosa PAO1 [1] [µg/mL]	MIC E. coli DH5α [2] [µg/mL]
CCCCCCCCCCCCCCCC(=O)NCCCC[C@H](NC(=O)[C@H](CC(C)C)NC(=O)[C@H](CCCCN)NC(=O)[C@H](CCCCNC(=O)[C@H](CC(C)C)NC(=O)[C@H](CCCCN)NC(=O)[C@H](CCCCNC(=O)[C@H](CC(C)C)NC(=O)[C@H](CCCCN)NC(=O)[C@H](CCCCNC(=O)[C@H](CC(C)C)NC(=O)[C@@H](N)CCCCN)NC(=O)[C@H](CC(C)C)NC(=O)[C@@H](N)CCCCN)NC(=O)[C@H](CC(C)C)NC(=O)[C@H](CCCCN)NC(=O)[C@H](CCCCNC(=O)[C@H](CC(C)C)NC(=O)[C@@H](N)CCCCN)NC(=O)[C@H](CC(C)C)NC(=O)[C@@H](N)CCCCN)NC(=O)[C@H](CC(C)C)NC(=O)[C@H](CCCCN)NC(=O)[C@H](CCCCNC(=O)[C@H](CC(C)C)NC(=O)[C@H](CCCCN)NC(=O)[C@H](CCCCNC(=O)[C@H](CC(C)C)NC(=O)[C@@H](N)CCCCN)NC(=O)[C@H](CC(C)C)NC(=O)[C@@H](N)CCCCN)NC(=O)[C@H](CC(C)C)NC(=O)[C@H](CCCCN)NC(=O)[C@H](CCCCNC(=O)[C@H](CC(C)C)NC(=O)[C@@H](N)CCCCN)NC(=O)[C@H](CC(C)C)NC(=O)[C@@H](N)CCCCN)C(N)=O [MSt-301, (KL)8(KKL)4(KKL)2(KKLKC16)] (I: H-KLK([Leu-Lys])KLKKLKKLK(Palmitoyl)-NH2 / II: H-KLK([Leu-Lys])KLKKL / III: H-KLK([Leu-Lys])KL / IV: H-KLK([Leu-Lys])KL; amide I:6-IV:C, I:9-II:C, II:6-III:C)	11 (≈ 2.24 µM)	8 (≈ 1.63 µM)
CC(C)C[C@H](NC(=O)[C@H](CC(C)C)NC(=O)[C@H](CCCCNC(=O)[C@H](CCCCN)NC(=O)[C@H](CCCCN)NC(=O)[C@H](CCCCNC(=O)[C@H](CC(C)C)NC(=O)[C@H](CC(C)C)NC(=O)[C@H](CCCCNC(=O)[C@H](CCCCN)NC(=O)[C@@H](N)CCCCN)NC(=O)[C@H](CCCCN)NC(=O)[C@@H](N)CCCCN)NC(=O)[C@H](CC(C)C)NC(=O)[C@H](CC(C)C)NC(=O)[C@H](CCCCNC(=O)[C@H](CCCCN)NC(=O)[C@@H](N)CCCCN)NC(=O)[C@H](CCCCN)NC(=O)[C@@H](N)CCCCN)NC(=O)[C@H](CCCCN)NC(=O)[C@H](CCCCN)NC(=O)[C@H](CCCCNC(=O)[C@H](CC(C)C)NC(=O)[C@H](CC(C)C)NC(=O)[C@H](CCCCNC(=O)[C@H](CCCCN)NC(=O)[C@@H](N)CCCCN)NC(=O)[C@H](CCCCN)NC(=O)[C@@H](N)CCCCN)NC(=O)[C@H](CC(C)C)NC(=O)[C@H](CC(C)C)NC(=O)[C@H](CCCCNC(=O)[C@H](CCCCN)NC(=O)[C@@H](N)CCCCN)NC(=O)[C@H](CCCCN)NC(=O)[C@@H](N)CCCCN)C(N)=O [MSt-179, (KK)8(KLL)4(KKK)2(KLL)] (I: H-KKK([Lys-Lys])LLKKKKLL-NH2 / II: H-KKK([Lys-Lys])LLKKK / III: H-KKK([Lys-Lys])LL / IV: H-KKK([Lys-Lys])LL; amide I:6-IV:C, I:9-II:C, II:6-III:C; N-terminus assumed)	–	>66
CCCCCCCCCCCCCCCC(=O)NCCCC[C@H](NC(=O)[C@H](CC(C)C)NC(=O)[C@H](CCCCN)NC(=O)[C@H](CCCCNC(=O)[C@H](CC(C)C)NC(=O)[C@H](CCCCN)NC(=O)[C@H](CCCCNC(=O)[C@H](CC(C)C)NC(=O)[C@@H](N)CCCCN)NC(=O)[C@H](CC(C)C)NC(=O)[C@@H](N)CCCCN)NC(=O)[C@H](CC(C)C)NC(=O)[C@H](CCCCN)NC(=O)[C@H](CCCCNC(=O)[C@H](CC(C)C)NC(=O)[C@@H](N)CCCCN)NC(=O)[C@H](CC(C)C)NC(=O)[C@@H](N)CCCCN)C(N)=O [MSt-302, (KL)4(KKL)2(KKLKC16)] (I: H-KLK([Leu-Lys])KLKKLK(Palmitoyl)-NH2 / II: H-KLK([Leu-Lys])KL; amide I:6-II:C)	–	12 (≈ 4.88 µM)
CC(C)C[C@H](NC(=O)[C@H](CC(C)C)NC(=O)[C@H](CCCCN)NC(=O)[C@H](CCCCNC(=O)[C@H](CC(C)C)NC(=O)[C@H](CC(C)C)NC(=O)[C@H](CCCCN)NC(=O)[C@H](CCCCNC(=O)[C@H](CC(C)C)NC(=O)[C@H](CC(C)C)NC(=O)[C@H](CCCCN)NC(=O)[C@H](CCCCNC(=O)[C@H](CC(C)C)NC(=O)[C@H](CC(C)C)NC(=O)[C@@H](N)CCCCN)NC(=O)[C@H](CC(C)C)NC(=O)[C@H](CC(C)C)NC(=O)[C@@H](N)CCCCN)NC(=O)[C@H](CC(C)C)NC(=O)[C@H](CC(C)C)NC(=O)[C@H](CCCCN)NC(=O)[C@H](CCCCNC(=O)[C@H](CC(C)C)NC(=O)[C@H](CC(C)C)NC(=O)[C@@H](N)CCCCN)NC(=O)[C@H](CC(C)C)NC(=O)[C@H](CC(C)C)NC(=O)[C@@H](N)CCCCN)NC(=O)[C@H](CC(C)C)NC(=O)[C@H](CC(C)C)NC(=O)[C@H](CCCCN)NC(=O)[C@H](CCCCNC(=O)[C@H](CC(C)C)NC(=O)[C@H](CC(C)C)NC(=O)[C@H](CCCCN)NC(=O)[C@H](CCCCNC(=O)[C@H](CC(C)C)NC(=O)[C@H](CC(C)C)NC(=O)[C@@H](N)CCCCN)NC(=O)[C@H](CC(C)C)NC(=O)[C@H](CC(C)C)NC(=O)[C@@H](N)CCCCN)NC(=O)[C@H](CC(C)C)NC(=O)[C@H](CC(C)C)NC(=O)[C@H](CCCCN)NC(=O)[C@H](CCCCNC(=O)[C@H](CC(C)C)NC(=O)[C@H](CC(C)C)NC(=O)[C@@H](N)CCCCN)NC(=O)[C@H](CC(C)C)NC(=O)[C@H](CC(C)C)NC(=O)[C@@H](N)CCCCN)C(N)=O [MIS-06, (KLL)8(KKLL)4(KKLL)2(KKLL)] (I: H-KLLK([Leu-Leu-Lys])KLLKKLLKKLL-NH2 / II: H-KLLK([Leu-Leu-Lys])KLLKKLL / III: H-KLLK([Leu-Leu-Lys])KLL / IV: H-KLLK([Leu-Leu-Lys])KLL; amide I:8-IV:C, I:12-II:C, II:8-III:C)	11 (≈ 1.77 µM)	–
CC(C)C[C@H](NC(=O)[C@H](CC(C)C)NC(=O)[C@H](CCCCN)NC(=O)[C@H](CCCCNC(=O)[C@H](CC(C)C)NC(=O)[C@H](CCCCN)NC(=O)[C@H](CC(C)C)NC(=O)[C@H](CCCCNC(=O)[C@H](CC(C)C)NC(=O)[C@H](CCCCN)NC(=O)[C@H](CCCCNC(=O)[C@H](CC(C)C)NC(=O)[C@@H](N)CCCCN)NC(=O)[C@H](CC(C)C)NC(=O)[C@@H](N)CCCCN)NC(=O)[C@H](CC(C)C)NC(=O)[C@H](CCCCN)NC(=O)[C@H](CCCCNC(=O)[C@H](CC(C)C)NC(=O)[C@@H](N)CCCCN)NC(=O)[C@H](CC(C)C)NC(=O)[C@@H](N)CCCCN)NC(=O)[C@H](CC(C)C)NC(=O)[C@H](CCCCN)NC(=O)[C@H](CC(C)C)NC(=O)[C@H](CCCCNC(=O)[C@H](CC(C)C)NC(=O)[C@H](CCCCN)NC(=O)[C@H](CCCCNC(=O)[C@H](CC(C)C)NC(=O)[C@@H](N)CCCCN)NC(=O)[C@H](CC(C)C)NC(=O)[C@@H](N)CCCCN)NC(=O)[C@H](CC(C)C)NC(=O)[C@H](CCCCN)NC(=O)[C@H](CCCCNC(=O)[C@H](CC(C)C)NC(=O)[C@@H](N)CCCCN)NC(=O)[C@H](CC(C)C)NC(=O)[C@@H](N)CCCCN)C(N)=O [YGO-009, (KL)8(KKL)4(KLKL)2(KKLL)] (I: H-KLK([Leu-Lys])KLKLKLKKLL-NH2 / II: H-KLK([Leu-Lys])KLKLKL / III: H-KLK([Leu-Lys])KL / IV: H-KLK([Leu-Lys])KL; amide I:6-IV:C, I:10-II:C, II:6-III:C)	2 (≈ 0.41 µM)	–
CC(C)C[C@H](NC(=O)[C@H](CCCCN)NC(=O)[C@H](CCCCNC(=O)[C@H](CC(C)C)NC(=O)[C@H](CCCCN)NC(=O)[C@H](CCCCNC(=O)[C@H](CC(C)C)NC(=O)[C@@H](N)CCCCN)NC(=O)[C@H](CC(C)C)NC(=O)[C@@H](N)CCCCN)NC(=O)[C@H](CC(C)C)NC(=O)[C@H](CCCCN)NC(=O)[C@H](CCCCNC(=O)[C@H](CC(C)C)NC(=O)[C@@H](N)CCCCN)NC(=O)[C@H](CC(C)C)NC(=O)[C@@H](N)CCCCN)C(N)=O [MSt-146, (KL)4(KKL)2(KKL)] (I: H-KLK([Leu-Lys])KLKKL-NH2 / II: H-KLK([Leu-Lys])KL; amide I:6-II:C)	7 (≈ 3.35 µM)	–
